The values below come from EP4579344A1, “THIOALKYLCOUMARIN PHOTOSENSITIZERS FOR PHOTOPOLYMERIZATION” (IGM Group B.V., priority 2023, dated 2025).

Data set [1] in a line: Fluorescence emission peak wavelength. The data set is classed as physicochemical. The conditions noted are these: dilute solution (A ~0.1) in acetonitrile; excitation at absorption maximum. Here is the method:
Fluorescence emission peak wavelength: Fluorescence spectra of the photosensitizers were recorded using a Horiba Jobin Yvon Fluoromax4 spectrofluorometer. The measurement for each photosensitizer was taken in a dilute solution (A ~0.1) of spectroscopic grade acetonitrile, using 1 cm path cell. The excitation wavelength was set at the maximum of absorption of the photosensitizer.

A short description of data set [2]: Maximum absorption peak wavelength. The data set is classed as physicochemical. Conditions: spectroscopic grade acetonitrile; maximum between 300 nm and 450 nm. The protocol: Maximum absorption peak wavelength: Absorption spectra have been recorded using an AnalytikJena S600 spectrophotometer. On a microbalance, the photosensitizer was weighted with a 10^-6 g precision in a DSC crucible. The crucible and its content was transferred in volumetric flask, then filled with spectroscopic grade acetonitrile. The reference was taken for the empty spectrometer, and two series of spectra were recorded for each solution, in a 1 cm path and in a 1 mm path cells. The spectra of the solvent was taken separately in both cell and then subtracted to solutions spectra. The absorption maxima value is taken where the absorption spectra reaches its maximum in the region between (300 nm and 450 nm)

Structures are written as SMILES.

For the molecule `Cc1cc(=O)oc2cc(SCCO)ccc12` [S5], the “λ^fluo max” value in data set [1] is reported as 396 nm. Moreover, in data set [2], the “λ^abs max” value is recorded as 330 nm.
On to `CN(C)CCSc1ccc2cc(-c3ccccc3)c(=O)oc2c1` [S4], for which, in data set [1], the “λ^fluo max” value is listed as 435 nm. The “λ^abs max” value in data set [2] is on record as 351 nm.
The like results for `CCSc1ccc2ccc(=O)oc2c1` [S9] were, in that order, 406 nm and 323 nm.
`CCCCC(CC)CSc1ccc2cc(-c3ccccc3)c(=O)oc2c1` (stereo not drawn) [S2]: the “λ^fluo max” value in data set [1] is given as 411 nm. The “λ^abs max” value in data set [2] stood at 352 nm.
Take `CSc1ccc2cc(-c3nc4ccccc4n3C)c(=O)oc2c1` [S7]: in data set [1], the “λ^fluo max” value was found to be 476 nm. The “λ^abs max” value in data set [2] worked out at 362 nm.
Taken in the same sequence, the figures for `CCSc1ccc2cc(-c3ccccc3)c(=O)oc2c1` [S1] were 440 nm and 345 nm.
Taken in the same sequence, the figures for `CCSc1ccc(-c2cc3ccc(SCC)cc3oc2=O)cc1` [S3] were 439 nm and 347 nm.
Regarding `CCN(CC)c1ccc2c(C)cc(=O)oc2c1` [S8, 7-diethylamino-4-methylcoumarin, reference compound], the “λ^fluo max” value in data set [1] is 434 nm. Besides, the “λ^abs max” value in data set [2] was determined as 370 nm.
Taken in the same sequence, the figures for `Cc1c(-c2ccccc2)c(=O)oc2cc(SCCO)ccc12` [S6] were 424 nm and 335 nm.
